{"source": "patent US11591363B2", "about": "“Crystalline forms of beta-sitosterol” (CENTER FOR I[…] IN CRYSTAL ENGINEERING, S.L., priority 2017, dated 2023)", "key": {"[1]": {"system": "circulating β-sitosterol levels", "experiment": "Activity test: sitosterolemia (plasma beta-sitosterol, GC-FID) after oral load of lard", "format": "in vivo, Golden Syrian male Hamsters", "details": "for decrease in circulating levels of β-sitosterol: 5 h post-treatment (T5) with respect to T0 value, oral load of lard 2.5 g/kg BW supplemented with 0.513 g/kg BW"}, "[2]": {"system": "Plasma triglyceride levels", "experiment": "Activity test: plasma triglycerides after oral load of lard", "format": "in vivo, Golden Syrian male Hamsters", "details": "for reduction of the plasmatic triglyceride concentration: T5 (5 h) vs T0"}, "[3]": {"system": "Plasma cholesterol levels", "experiment": "Activity test: plasma cholesterol after oral load of lard", "format": "in vivo, Golden Syrian male Hamsters", "details": "measured at 5 h (T5) vs T0, oral load of lard 2.5 g/kg BW supplemented with 0.513 g/kg BW"}, "[4]": {"experiment": "Bioavailability assessment: plasma beta-sitosterol after 21 days high-fat diet"}, "[5]": {"experiment": "Particle size test by laser diffraction", "format": "physicochemical", "text": "This test provides the particle size of the co-crystals of the present invention in comparison with the comparaitive Standard sample of beta-Sitosterol from the Ph. Eu. Reference Standard, ref. (Y0001615)\n7.1. Tested Samples • Comparative sample A: comparaitive Standard sample of beta-Sitosterol from the Ph. Eu. Reference Standard, ref. (Y0001615) • Sample A: hydrate crystal of beta-sitosterol having 1.25 molecules of water of the present invention • Sample B: cocrystal of beta-sitosterol and gallic acid Form 5 of the present invention • Sample C: cocrystal of beta-sitosterol and propionic acid Form 2 of the present invention\nThe particle size was performed by laser diffraction. For this purpose, a Beckman-Coulter model. LS13320 laser diffractometer (Fullerton, Calif., USA) was equipped with a Micro. Liquid Module (MLM) wet dispersion modul, an an optic model (Fraunhofer. Rdf, PIDS). The measurement range is 0.4-2000 μm."}, "[6]": {"experiment": "Solubility test, shake-flask in FaSSIF-V2", "format": "physicochemical", "details": "for solubility, comparison between tested samples: FaSSIF-V2, pH 6.5, 25° C.; for solubility at 24 h: thermodynamic from solid, read-out: Log S (logarithm of S in mol/L) (converted)", "description": "This test is focused on evaluating the solubility in Fasted State Simulated Intestinal Fluid (FaSSIF-V2).\n5.1. Samples • Comparative sample A (reference): Standard sample of beta-Sitosterol from the Ph. Eu. Reference Standard, ref. (Y0001615) • Sample A: hydrate crystal of beta-sitosterol having 1.25 molecules of water of the present invention • Sample B: cocrystal of beta-sitosterol and gallic acid Form 5 of the present invention\nSolubility is determined in FaSSIF-V2 media, prepared as stated by Biorelevant.com using maleic acid buffer (pH=6.5).\nAll experiments are done under temperature control at 25±1° C. The weight of tested samples expressed in mg, and FaSSIF final volume expressed in mL are as defined in Table below:\nShaking time: 24 h in a rotational stirrer. After 4-5 h of shaking, pH is measured and readjusted to the initial value (6.5) in case it is needed. • Equilibration time: 24 h • Final pH measurement • Phase separation: filtration through a hydrophilic filter (PTFE membrane, 0.45 μm porous size, 4 mm diameter, Millex-LH, Millipore). Before the filtration, the filter was conditioned with sample solution for 1 h. After that time, filtration started rejecting the first drops of sample. • Solid form characterization: solid obtained after filtration is analysed by XRPD to know the exact solid form obtained after the shake-flask procedure. In case of cocrystals, XRPD analysis confirms that experiments are done under eutectic point conditions. • Liquid phase is used for API and coformer quantification.\n5.3.2. HPLC Quantification • Instrument: Shimadzu HPLC, with diode array detector (SPD-M10AVPI), two pumps (LC-10ADVP), autoinjector (SIL-10ADVP) and column oven (CTO-10ASVP). • Column:\nFor comparative sample A and sample A quantification: Phenomenex Kinetex C18, 100×4.6 mm, 2.6 μm. For sample B quantification: Phenomenex Luna C18, 150×4.6 mm, 5 μm. • Conditions:\nFor comparative sample A and sample A quantification: Mobile phase composed of 80% Methanol-20% Acetonitrile. Isocratic conditions. Flow: 0.8 mL/min. Injection volume: 20 μL.\nFor sample B quantification: Mobile phase composed of 20 mM formic acid at pH=3 (A) and methanol (B). Gradient conditions: 0-3 min, 5% B; 8 min, 10% B; 15 min, 100% B; 17 min, 5% B; 25 min, 5% B. Flow: 1 mL/min. Injection volume: 10 μL.\nQuantification wavelength: 210 nm for comparative sample A and 280 nm for sample A.\nThe amounts of comparative sample A, sample A and sample B in the filtered solutions coming from Shake-Flask (SF) experiments have been quantified according to the described methodology.\nSolubility of the samples A and B has been calculated through the equilibrium concentrations in the eutectic point as described in “S. J. Bethune, N. Huang, A. Jayasankar, N. Rodriguez-Hornedo, Crystal Growth and Design 9, 2009, 3976-3988”, taking into account the stoichiometry of each sample."}, "[7]": {"details": "FaSSIF-V2, pH 6.5, 25±1° C., shake-flask 24 h, value (SD)"}}, "note": "Where two headings read alike, the source gives them in different places."}
{"compound": "CC[C@H](CC[C@@H](C)[C@H]1CC[C@H]2[C@@H]3CC=C4C[C@@H](O)CC[C@]4(C)[C@H]3CC[C@]12C)C(C)C", "note": "[cocrystal Form 2, cocrystal of beta-sitosterol and propionic acid]", "values": [{"measurement": "decrease in circulating levels of β-sitosterol", "setting": "[1]; listed as test sample C", "result": 14, "unit": "%"}, {"measurement": "plasma triglyceride concentrations at T5, comparison between groups (FIG. 15)", "setting": "[2]; 5 h post-oral fat load, 0.513 g/kg BW", "result": "lower levels at T5 in comparison with both Compound A and compound B"}, {"measurement": "reduction of the plasmatic triglyceride concentration", "setting": "[2]; oral load of lard 2.5 g/kg BW supplemented with 0.513 g/kg BW, listed as test sample C", "result": 20, "unit": "%"}, {"measurement": "decrease of plasmatic cholesterol levels", "setting": "[3]; listed as Test sample C", "result": 21, "unit": "%"}, {"measurement": "Fold-change (FC) of increase of circulating beta-sitosterol with respect to controls (comparative group A)", "setting": "[4]; 0.264 g beta-sitosterol/kg BW, control set to 1, listed as test sample C", "result": 6.4}, {"measurement": "FC increment of circulating beta-sitosterol in relation to reference sample B1 value", "setting": "[4]; same dose 0.264 g beta-sitosterol/kg BW", "result": 2.7}, {"measurement": "D10", "setting": "[5]; listed as Sample C", "result": 6.671, "unit": "μm"}, {"measurement": "D50", "setting": "[5]; listed as Sample C", "result": 28.01, "unit": "μm"}, {"measurement": "D90", "setting": "[5]; listed as Sample C", "result": 47.60, "unit": "μm"}, {"measurement": "D(3, 2) surface weighted mean diameter", "setting": "[5]; listed as Sample C", "result": 13.19, "unit": "μm"}, {"measurement": "Mean particle size", "setting": "[5]; listed as Sample C", "result": 27.77, "unit": "μm"}]}
{"compound": "CC[C@H](CC[C@@H](C)[C@H]1CC[C@H]2[C@@H]3CC=C4C[C@@H](O)CC[C@]4(C)[C@H]3CC[C@]12C)C(C)C", "note": "[comparative sample B, beta-sitosterol]", "values": [{"measurement": "decrease in circulating levels of β-sitosterol", "setting": "[1]", "result": 23, "unit": "%"}, {"measurement": "percentage of variation on β-sitosterol plasma levels T5 vs T0, comparison with control (FIG. 16)", "setting": "[1]; 5 h post-treatment, 0.513 g/kg BW", "result": "decrease in comparison with control (group A)"}, {"measurement": "increase in triglyceridemia at 5 h (T5)", "setting": "[2]; T5 vs T0, oral load of lard 2.5 g/kg BW supplemented with 0.513 g/kg BW", "result": 39, "unit": "%"}, {"measurement": "decrease of plasmatic cholesterol levels", "setting": "[3]", "result": 25, "unit": "%"}]}
{"compound": "cocrystal of beta-sitosterol and gallic acid [cocrystal Form 5]", "values": [{"measurement": "solubility, comparison between tested samples", "setting": "[6]", "result": "more soluble than the remaining tested samples"}, {"measurement": "[API] concentration of beta-sitosterol in the solutions coming from SF experiments", "setting": "[6]; [7]", "result": "3.0 (1.5) mg/mL"}, {"measurement": "Log S (logarithm of S in mol/L)", "setting": "[6]; FaSSIF-V2, pH 6.5, 25±1° C., calculated through the equilibrium concentrations in the eutectic point, taking into account stoichiometry", "result": "−4.7 (0.1) mol/L"}, {"measurement": "Fold-change (FC) of increase of circulating beta-sitosterol with respect to controls (comparative group A)", "setting": "[4]; equivalent to 0.158 g of beta-sitosterol/kg BW, control set to 1", "result": 4.7}, {"measurement": "Fold-change (FC) of increase of circulating beta-sitosterol with respect to controls (comparative group A)", "setting": "[4]; equivalent to 0.330 g of beta-sitosterol/kg BW, control set to 1", "result": 7.9}, {"measurement": "D10", "setting": "[5]", "result": 3.102, "unit": "μm"}, {"measurement": "D50", "setting": "[5]", "result": 10.24, "unit": "μm"}, {"measurement": "D90", "setting": "[5]", "result": 23.21, "unit": "μm"}, {"measurement": "D(3, 2) surface weighted mean diameter", "setting": "[5]", "result": 6.009, "unit": "μm"}, {"measurement": "Mean particle size", "setting": "[5]", "result": 12.05, "unit": "μm"}]}
{"compound": "CC[C@H](CC[C@@H](C)[C@H]1CC[C@H]2[C@@H]3CC=C4C[C@@H](O)CC[C@]4(C)[C@H]3CC[C@]12C)C(C)C", "note": "[reference sample B2, beta-sitosterol]", "values": [{"measurement": "Fold-change (FC) of increase of circulating beta-sitosterol with respect to controls (comparative group A)", "setting": "[4]; 0.528 g/kg BW, control set to 1", "result": 5.3}]}
{"compound": "CC[C@H](CC[C@@H](C)[C@H]1CC[C@H]2[C@@H]3CC=C4C[C@@H](O)CC[C@]4(C)[C@H]3CC[C@]12C)C(C)C", "note": "[Comparative sample A, beta-sitosterol]", "values": [{"measurement": "solubility at 24 h", "setting": "[6]; FaSSIF-V2, 25 °C, pH 6.5, fassif, FaSSIF-V2, pH 6.5, 25±1° C., shake-flask 24 h, value (SD)", "result": 0.851, "unit": "µM"}, {"measurement": "[API] concentration of beta-sitosterol in the solutions coming from SF experiments", "setting": "[6]; [7]", "result": "0.36 (0.06) mg/mL"}, {"measurement": "D10", "setting": "[5]", "result": 44.62, "unit": "μm"}, {"measurement": "D50", "setting": "[5]", "result": 108.0, "unit": "μm"}, {"measurement": "D90", "setting": "[5]", "result": 178.8, "unit": "μm"}, {"measurement": "D(3, 2) surface weighted mean diameter", "setting": "[5]", "result": 30.19, "unit": "μm"}, {"measurement": "Mean particle size", "setting": "[5]", "result": 109.9, "unit": "μm"}]}
{"compound": "CC[C@H](CC[C@@H](C)[C@H]1CC[C@H]2[C@@H]3CC=C4C[C@@H](O)CC[C@]4(C)[C@H]3CC[C@]12C)C(C)C", "note": "[hydrate crystal form of beta-sitosterol, beta-sitosterol]", "values": [{"measurement": "decrease in circulating levels of β-sitosterol", "setting": "[1]; listed as test sample D", "result": 34, "unit": "%"}, {"measurement": "solubility at 24 h", "setting": "[6]; 25 °C, FaSSIF-V2, pH 6.5, 25±1° C., calculated through the equilibrium concentrations in the eutectic point, taking into account stoichiometry", "result": 5.01, "unit": "µM"}, {"measurement": "solubility, comparison between tested samples", "setting": "[6]", "result": "more soluble than the commercially available beta-sitosterol"}, {"measurement": "[API] concentration of beta-sitosterol in the solutions coming from SF experiments", "setting": "[6]; FaSSIF-V2, pH 6.5, 25±1° C., shake-flask 24 h, value (SD), listed as Sample A", "result": "2.5 (1) mg/mL"}, {"measurement": "reduction of the plasmatic triglyceride concentration", "setting": "[2]; oral load of lard 2.5 g/kg BW supplemented with 0.513 g/kg BW, listed as test sample D", "result": 2, "unit": "%"}, {"measurement": "decrease of plasmatic cholesterol levels", "setting": "[3]; listed as test sample D", "result": 29, "unit": "%"}, {"measurement": "D10", "setting": "[5]; listed as Sample A", "result": 4.145, "unit": "μm"}, {"measurement": "D50", "setting": "[5]; listed as Sample A", "result": 16.39, "unit": "μm"}, {"measurement": "D90", "setting": "[5]; listed as Sample A", "result": 34.63, "unit": "μm"}, {"measurement": "D(3, 2) surface weighted mean diameter", "setting": "[5]; listed as Sample A", "result": 8.558, "unit": "μm"}, {"measurement": "Mean particle size", "setting": "[5]; listed as Sample A", "result": 18.12, "unit": "μm"}]}
{"compound": "cocrystal of beta-sitosterol and benzyl alcohol [cocrystal Form 4]", "values": [{"measurement": "decrease in circulating levels of β-sitosterol", "setting": "[1]", "result": 12, "unit": "%"}, {"measurement": "reduction of the plasmatic triglyceride concentration", "setting": "[2]; oral load of lard 2.5 g/kg BW supplemented with 0.513 g/kg BW", "result": 7, "unit": "%"}, {"measurement": "decrease of plasmatic cholesterol levels", "setting": "[3]", "result": 31, "unit": "%"}]}
{"compound": "CC[C@H](CC[C@@H](C)[C@H]1CC[C@H]2[C@@H]3CC=C4C[C@@H](O)CC[C@]4(C)[C@H]3CC[C@]12C)C(C)C", "note": "[reference sample B1, beta-sitosterol]", "values": [{"measurement": "Fold-change (FC) of increase of circulating beta-sitosterol with respect to controls (comparative group A)", "setting": "[4]; 0.264 g beta-sitosterol/kg BW, control set to 1", "result": 2.4}]}
